# Molecular target: T1, AtFHA2 (Arabidopsis thaliana, UniProt Q9SFV2)
# T1 construct: gene FHA2; recombinant AtFHA2 (AT3G07220.1)
# T1 sequence (Q9SFV2 2-320): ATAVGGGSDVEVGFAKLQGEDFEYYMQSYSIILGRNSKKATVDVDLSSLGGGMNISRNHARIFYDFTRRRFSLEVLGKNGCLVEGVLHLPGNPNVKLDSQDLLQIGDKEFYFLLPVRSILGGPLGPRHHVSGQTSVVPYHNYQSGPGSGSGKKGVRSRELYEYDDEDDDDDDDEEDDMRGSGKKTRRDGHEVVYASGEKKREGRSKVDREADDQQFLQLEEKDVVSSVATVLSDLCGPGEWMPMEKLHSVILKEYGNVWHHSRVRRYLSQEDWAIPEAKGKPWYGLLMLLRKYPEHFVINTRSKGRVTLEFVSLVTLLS
# Test: isothermal titration calorimetry (ITC) with recombinant protein
# Type: binding
row,SMILES,Kd [µM]
1,"O=P(O)(O)O[C@H]1[C@H](OP(=O)(O)O)[C@@H](OP(=O)(O)O)[C@H](OP(=O)(O)OP(=O)(O)O)[C@@H](OP(=O)(O)O)[C@H]1OP(=O)(O)O [compound 4, 4-PP-InsP5]",4.9 ± 2.24
2,"O=P(O)(O)O[C@H]1[C@H](OP(=O)(O)O)[C@@H](OP(=O)(O)O)[C@H](OP(=O)(O)O)[C@@H](OP(=O)(O)O)[C@H]1OP(=O)(O)O [compound 6, InsP6]",> 100

# — PMC13159116, “Affinity‐Based Interactome Mapping of Inositol Pyrophosphates Reveals 4/6‐PP‐InsP5‐Binding Proteins in Plants” (Advanced Science, 2026)
